Results taken from patent US7709548B2, “Method for manufacturing monosulfonium salt, cationic polymerization initiator, curable composition, and cured product” (San-Apro Limited, priority 2003, dated 2010).

Test: Storage stability test (viscosity change of mixture with UVR-6110 stored at 80° C.)
Type: physicochemical
Details: measured at 25° C.; for Viscosity after storage for 1 week / Viscosity after storage for 2 weeks / Viscosity after storage for 4 weeks / Viscosity after storage for 6 weeks: stored at 80° C.
Description: As an acceleration test for storage stability, a mixture of the cationic polymerization initiator solution and a cationic polymerizable compound was evaluated by measuring its change in the viscosity when stored at a temperature of 80° C.
5 parts of a propylene carbonate solution of the cationic polymerization initiators used in each of Test Examples 5 and 9 was added to 100 parts UVR-6110 (the alicyclic epoxy resin, supra), and 200 g of this mixture was put in a 250 mL brown plastic bottle and stored in an 80° C. thermostat.
3 parts of a propylene carbonate solution of the cationic polymerization initiator used in each of Test Examples 12 and 15 were mixed with 100 parts UVR-6110, and 200 g of this mixture taken in a 250 ml brown plastic bottle and stored in an 80° C. thermostat.
The above-mentioned mixture was adjusted to 25° C. in a thermostatic tank that had been adjusted to 25° C., and the viscosity of the mixture was measured at the start of storage and after one, two, four, and six weeks.

[1] = 3 parts initiator solution per 100 parts UVR-6110
[2] = 5 parts initiator solution per 100 parts UVR-6110

Molecule	Viscosity after storage, At start [1] [mPa · s]	Viscosity after storage for 1 week [1] [mPa · s]	Viscosity after storage for 2 weeks [1] [mPa · s]	Viscosity after storage for 4 weeks [1] [mPa · s]	Viscosity after storage for 6 weeks [1] [mPa · s]	Viscosity after storage, At start [2] [mPa · s]	Viscosity after storage for 1 week [2] [mPa · s]	Viscosity after storage for 2 weeks [2] [mPa · s]	Viscosity after storage for 4 weeks [2] [mPa · s]	Viscosity after storage for 6 weeks [2] [mPa · s]
(4-phenylthiophenyl)diphenylsulfonium hexafluoroantimonate [Example 8]	470	470	470	510	650					
F[P-](F)(F)(F)(F)F.c1ccc(Sc2ccc([S+](c3ccccc3)c3ccccc3)cc2)cc1 [Example 5, (4-phenylthiophenyl)diphenylsulfonium hexafluorophosphonate]						480	480	480	500	500
